Drawing on patent publication US12649751B2 (Arcus Biosciences, Inc., priority 2022, dated 2026), this text covers IC50 for 43 compounds.

Sequence of HPK1 (Q92918 whole entry, species assumed): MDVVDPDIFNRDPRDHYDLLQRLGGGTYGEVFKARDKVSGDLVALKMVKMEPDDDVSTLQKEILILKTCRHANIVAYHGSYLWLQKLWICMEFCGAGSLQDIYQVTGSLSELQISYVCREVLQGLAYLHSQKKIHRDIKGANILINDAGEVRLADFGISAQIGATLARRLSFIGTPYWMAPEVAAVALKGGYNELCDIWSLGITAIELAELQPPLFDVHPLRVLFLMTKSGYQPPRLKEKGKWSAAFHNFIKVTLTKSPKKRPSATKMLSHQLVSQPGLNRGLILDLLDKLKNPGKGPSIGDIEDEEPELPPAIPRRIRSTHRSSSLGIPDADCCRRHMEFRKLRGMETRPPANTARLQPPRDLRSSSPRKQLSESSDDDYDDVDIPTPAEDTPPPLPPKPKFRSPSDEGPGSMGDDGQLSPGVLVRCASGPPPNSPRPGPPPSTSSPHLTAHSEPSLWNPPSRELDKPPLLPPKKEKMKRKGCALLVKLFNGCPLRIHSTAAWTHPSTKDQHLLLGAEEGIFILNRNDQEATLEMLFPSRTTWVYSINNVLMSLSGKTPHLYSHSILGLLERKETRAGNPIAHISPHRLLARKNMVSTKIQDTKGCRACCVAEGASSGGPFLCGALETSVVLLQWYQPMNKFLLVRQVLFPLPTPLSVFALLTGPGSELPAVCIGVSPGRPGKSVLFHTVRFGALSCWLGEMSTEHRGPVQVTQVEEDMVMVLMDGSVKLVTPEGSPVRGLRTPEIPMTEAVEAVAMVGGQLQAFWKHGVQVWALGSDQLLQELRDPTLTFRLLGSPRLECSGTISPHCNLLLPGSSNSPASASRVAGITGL

The first test addresses HPK1 (Homo sapiens, UniProt Q92918). Description: HPK1 Biochemical Assay (ADP-Glo luminescence; low ATP 10 μM or high ATP 200 μM). Conditions: 2 nM HPK1, 10 μM ATP; read-out: Biochemical Potency (low ATP).
Take `Cc1cccnc1-c1nc2cc(Nc3ccc(C4CCOC4)c(CN4CCCC4)n3)ncc2s1` (racemic) [Example 252, N-[2-(3-Methylpyridin-2-yl)-[1,3]thiazolo[5,4-c]pyridin-6-yl]-5-(oxolan-3-yl)-6-[(pyrrolidin-1-yl)methyl]pyridin-2-amine]: the IC50 was less than 100 nM.
On the same count and under the same terms, the result for `CNS(=O)(=O)c1cccc(-c2nc3cc(Nc4cccc(N5C[C@@H]6C[C@H]5CN6)n4)ncc3s2)c1` [Example 292, 3-[6-({6-[(1S,4S)-2,5-diazabicyclo[2.2.1]heptan-2-yl]pyridin-2-yl}amino)-[1,3]thiazolo[5,4-c]pyridin-2-yl]-N-methylbenzene-1-sulfonamide] reads less than 100 nM.
On to `CN(C)S(=O)(=O)c1cccc(-c2nc3cc(Nc4cccc(N5C[C@@H]6C[C@H]5CN6)n4)ncc3s2)c1` [Example 293], for which the IC50 was less than 100 nM.
Consider `CN1C[C@@H]2C[C@H]1CN2c1nccc(Nc2cc3nc(-c4ccnc5c4cnn5C)sc3cn2)n1` [Example 294, N-(2-{1-methyl-1H-pyrazolo[3,4-b]pyridin-4-yl}-[1,3]thiazolo[5,4-c]pyridin-6-yl)-2-[(1 S,4S)-5-methyl-2,5-diazabicyclo[2.2.1]heptan-2-yl]pyrimidin-4-amine], for which the IC50 is less than 100 nM.

Still in this test, the particulars now being: HPK1 ADP-Glo assay, high ATP (200 μM ATP, 5 nM HPK1); read-out: Biochemical Potency (high ATP).
On to `CC[C@@H]1COCCN1c1cncc(-c2nc3cc(Nc4cc(C)nc(N5C[C@@H]6C[C@H]5CN6CC)n4)ncc3s2)c1` [Example 473], for which the IC50 is less than 100 nM.
On to `Cc1cc(Nc2cc3nc(-c4cccc(C(=O)N(C)[C@@H]5CCCOC5)c4)sc3cn2)nc(N2C[C@@H]3C[C@H]2CN3CCO)n1` [Example 542], for which the IC50 was less than 100 nM.
For the compound `Cc1cc(Nc2cc3nc(-c4cccc(C(=O)N(C)C[C@@H]5CCOC5)c4)sc3cn2)nc(N2C[C@@H]3C[C@H]2CN3CCO)n1` [Example 557], the IC50 was less than 100 nM.
The same measure, in the same setting: as for `Cc1cc(Nc2cc3nc(-c4cccc(C(=O)N(C)[C@@H]5CCOC5)c4)sc3cn2)nc(N2C[C@@H]3C[C@H]2CN3CCO)n1` [Example 559], the figure is less than 100 nM.

Still in this test, the particulars now being: HPK1 ADP-Glo assay, low ATP (10 μM ATP, 2 nM HPK1); read-out: Biochemical Potency (low ATP).
Turning to `CC(C)(O)c1cc(-c2nc3cc(Nc4cnc(C5CCOCC5)c(N5C[C@@H]6C[C@H]5CN6)n4)ncc3s2)ccn1` [Example 303, 2-{4-[6-({6-[(1S,4S)-2,5-diazabicyclo[2.2.1]heptan-2-yl]-5-(oxan-4-yl)pyrazin-2-yl}amino)-[1,3]thiazolo[5,4-c]pyridin-2-yl]pyridin-2-yl}propan-2-ol], the IC50 is less than 100 nM.
Consider `Cc1cccnc1-c1nc2cc(Nc3ccc4cccc(C(C)(C)N)c4n3)ncc2s1` [Example 306, 6-[8-(1-amino-1-methylethyl)-2-quinolylamino]-2-(3-methyl-2-pyridyl)-3-thia-1,5-diazaindene], for which the IC50 was less than 100 nM.
On to `Cc1cccnc1-c1nc2cc(Nc3cccc(C4(O)C[C@@H]5CC4CN5)n3)ncc2s1` (some centres unmarked) [Example 314, 5-{6-[2-(3-methyl-2-pyridyl)-3-thia-1,5-diaza-6-indenylamino]-2-pyridyl}-2-azabicyclo[2.2.1]heptan-5-ol], for which the IC50 is less than 100 nM.
Same read-out and setting: as for `Cc1cccnc1-c1nc2cc(Nc3cc(C4CCNC4)nc(N4CCC(F)(F)C4)n3)ncc2s1` (centres unmarked) [Example 319, [2-(3,3-difluoro-1-pyrrolidinyl)-6-(3-pyrrolidinyl)-4-pyrimidinyl][2-(3-methyl-2-pyridyl)-3-thia-1,5-diaza-6-indenyl]amine], the figure is 100 to 1000 nM; as for `CNS(=O)(=O)c1cccc(-c2nc3cc(Nc4cccc(N5C[C@@H]6C[C@H]5CN6)n4)ncc3s2)c1` [Example 324], less than 100 nM; as for `CN(C)S(=O)(=O)c1cccc(-c2nc3cc(Nc4cccc(N5C[C@@H]6C[C@H]5CN6)n4)ncc3s2)c1` [Example 325], less than 100 nM.
Take `CS(=O)(=O)Nc1cccc(-c2nc3cc(Nc4cccc(N5C[C@@H]6C[C@H]5CN6)n4)ncc3s2)c1` [Example 326]: the IC50 is less than 100 nM.
As to `CN1C[C@@H]2C[C@H]1CN2c1nccc(Nc2cc3nc(-c4ccnc5c4cnn5C)sc3cn2)n1` [Example 411], the IC50 is less than 100 nM.
For `CN1C[C@@H]2C[C@H]1CN2c1cncc(Nc2cc3nc(-c4cccc(C(=O)N5CC[C@H](F)C5)c4)sc3cn2)n1` [Example 417], the IC50 was less than 100 nM.
Still for that read-out and setting: as for `CN1C[C@@H]2C[C@H]1CN2c1cncc(Nc2cc3nc(-c4cccc(C(C)(C)O)c4)sc3cn2)n1` [Example 418], the figure is less than 100 nM; as for `CN1C[C@@H]2C[C@H]1CN2c1nccc(Nc2cc3nc(-c4cccc(C(C)(C)O)c4)sc3cn2)n1` [Example 419], less than 100 nM; as for `CN1C[C@@H]2C[C@H]1CN2c1nccc(Nc2cc3nc(-c4ncco4)sc3cn2)n1` [Example 420], less than 100 nM.
For the compound `CN1C[C@@H]2C[C@H]1CN2c1cncc(Nc2cc3nc(-c4ncco4)sc3cn2)n1` [Example 421], the IC50 was less than 100 nM.
Turning to `CN1C[C@@H]2C[C@H]1CN2c1nccc(Nc2cc3nc(N4CCc5cnccc5C4)sc3cn2)n1` [Example 426], the IC50 lay within 100 to 1000 nM.
Consider `CN1C[C@@H]2C[C@H]1CN2c1nccc(Nc2cc3nc(N4CCc5ccncc5C4)sc3cn2)n1` [Example 427], for which the IC50 lay within 100 to 1000 nM.
Take `CN1C[C@@H]2C[C@H]1CN2c1nccc(Nc2cc3nc(N4CCc5cccnc5C4)sc3cn2)n1` [Example 428]: the IC50 lay within 100 to 1000 nM.
As for `c1cnn(-c2nc3cc(Nc4cc(C5CCOCC5)nc(N5C[C@@H]6C[C@H]5CN6)n4)ncc3s2)c1` [Example 437], the IC50 is less than 100 nM.
Turning to `CN1C[C@@H]2C[C@H]1CN2c1nc(Nc2cc3nc(-c4ccnc(C(C)(C)O)c4)sc3cn2)cc(C2CCOCC2)n1` [Example 439], the IC50 is less than 100 nM.
Consider `CC(C)(O)c1cc(-c2nc3cc(Nc4cc(C5CCOCC5)nc(N5C[C@@H]6C[C@H]5CN6)n4)ncc3s2)ccn1` [Example 441], for which the IC50 was less than 100 nM.
On to `CC(C)(O)c1cccc(-c2nc3cc(Nc4cc(C5CCOCC5)nc(N5C[C@@H]6C[C@H]5CN6)n4)ncc3s2)c1` [Example 442], for which the IC50 was less than 100 nM.
On to `CN1C[C@@H]2C[C@H]1CN2c1nccc(Nc2cc3nc(-c4ccnc(N5CCC[C@@H](O)C5)c4)sc3cn2)n1` [Example 459], for which the IC50 is less than 100 nM.
As for `CN1C[C@@H]2C[C@H]1CN2c1nccc(Nc2cc3nc(-c4ccnc(N5CC[C@@H](F)C5)c4)sc3cn2)n1` [Example 461], the IC50 was less than 100 nM.
For the compound `CN1C[C@@H]2C[C@H]1CN2c1nccc(Nc2cc3nc(-c4ccnc(N5CC[C@H](O)C5)c4)sc3cn2)n1` [Example 462], the IC50 is less than 100 nM.
`CN1C[C@@H]2C[C@H]1CN2c1nccc(Nc2cc3nc(-c4ccnc(N5CC[C@H](F)C5)c4)sc3cn2)n1` [Example 463]: the IC50 is less than 100 nM.
Regarding `CN1C[C@@H]2C[C@H]1CN2c1nccc(Nc2cc3nc(-c4ccnc(N5CC[C@@H](O)C5)c4)sc3cn2)n1` [Example 465], the IC50 is less than 100 nM.
With `Cc1cccnc1-c1nc2cc(Nc3ccc4c(n3)[C@@](C)(N)CCC4)ncc2s1` [Example 578], the IC50 was less than 100 nM.
`Cc1ccnn1-c1nc2cc(Nc3ccc4c(n3)C(C)(N)CC4)ncc2s1` (centres unmarked) [Example 579]: the IC50 is less than 100 nM.
`Cc1ccnn1-c1nc2cc(Nc3ccc4c(n3)C(C)(N)CCC4)ncc2s1` (centres unmarked) [Example 580]: the IC50 was less than 100 nM.
`Cc1cccnc1-c1nc2cc(Nc3ccc4c(n3)[C@H](N)CC4)ncc2s1` [Example 582]: the IC50 is less than 100 nM.
For the compound `Cc1cccnc1-c1nc2cc(Nc3ccc4c(n3)[C@@H](N)CCC4)ncc2s1` [Example 583], the IC50 is less than 100 nM.

A further test concerns p-SLP-76 (Ser376) in Jurkat cells. Description: pSLP76 Cellular Assay (AlphaLISA SureFire Ultra p-SLP-76 (Ser376), anti-CD3 activated Jurkat cells). In kind it is cell-based. Conditions: Homo sapiens; Jurkat cells, anti-CD3 stimulation, pSLP76; read-out: Cellular Potency. How it is done:
pSLP76 cellular assay was performed using Jurkat cells and the AlphaLISA SureFire Ultra p-SLP-76 (Ser376) Assay Kit (PerkinElmer). Dose-response assays were performed in Greiner® Low Volume 384-well assay plates containing 200 nL of 22 serial 2-fold compound dilutions using Bravo and Echo. Jurkat cells were grown in RPMI-1640 supplemented with 10% FBS and PSG. The day prior to the assay, the cells were collected, and serum starved overnight in Opti-MEM. The day of the assay, the cells were collected and resuspended in HBSS. 100,000 cells/well were added to the compound plates and after a short spin, the plates were incubated at 37° C. for 1 h. The cells were activated by adding 10 μL of 0.025 mg/ml anti-CD3. Plates were then incubated at 37° C. for 45 min. Stimulation was terminated by adding […], followed by a brief centrifugation and 60 min of shaking at 300 rpm. Cell lysates (10 μL) were transferred to 384-well White Opti-plates and the samples were processed according to the manufacturer's directions. The fluorescence signal from pSLP76 was measured at 570 nm using Envision plate reader. IC50 values were determined by fitting the data to a standard 4-parameter logistic equation. The results are summarized in the Cellular Potency columns in Tables 4 and 5 below (Cellular Potency).
For the compound `Cc1cccnc1-c1nc2cc(Nc3ccc(C4CCOC4)c(CN4CCCC4)n3)ncc2s1` (racemic) [Example 252, N-[2-(3-Methylpyridin-2-yl)-[1,3]thiazolo[5,4-c]pyridin-6-yl]-5-(oxolan-3-yl)-6-[(pyrrolidin-1-yl)methyl]pyridin-2-amine], the IC50 lay within 100 to 1000 nM.
On to `CN1C[C@@H]2C[C@H]1CN2c1cccc(Nc2cc3nc(-c4cccc(S(C)(=O)=O)c4)sc3cn2)n1` [Example 136, N-[2-(3-Methanesulfonylphenyl)-[1,3]thiazolo[5,4-c]pyridin-6-yl]-6-[(1S,4S)-5-methyl-2,5-diazabicyclo[2.2.1]heptan-2-yl]pyridin-2-amine], for which the IC50 is 100 to 1000 nM.
With `Cc1ccc(Nc2cc3nc(-c4ncccc4C)sc3cn2)nc1OC[C@H](N)C(C)(C)C` [Example 180, 6-[(2R)-2-Amino-3,3-dimethylbutoxy]-5-methyl-N-[2-(3-methylpyridin-2-yl)-[1,3]thiazolo[5,4-c]pyridin-6-yl]pyridin-2-amine], the IC50 is greater than 5000 nM.

Still in this test, the particulars now being: Homo sapiens; pSLP76 (Ser376) AlphaLISA, anti-CD3 activated Jurkat cells; read-out: Cellular Potency.
For the compound `Cc1cc(Nc2cc3nc(-c4cccc(C(=O)N(C)C5CCCOC5)c4)sc3cn2)nc(N2C[C@@H]3C[C@H]2CN3CCO)n1` (some centres unmarked) [Example 542], the IC50 was less than 100 nM.
Same read-out and setting: the result for `Cc1cc(Nc2cc3nc(-c4cccc(C(=O)N(C)CC5CCOC5)c4)sc3cn2)nc(N2C[C@@H]3C[C@H]2CN3CCO)n1` (some centres unmarked) [Example 557] reads 100 to 1000 nM; that for `Cc1cc(Nc2cc3nc(-c4cccc(C(=O)N(C)C5CCOC5)c4)sc3cn2)nc(N2C[C@@H]3C[C@H]2CN3CCO)n1` (some centres unmarked) [Example 559], 100 to 1000 nM.
